In patent publication US20220330549A1, “USE OF N-BENZYLBENZAMIDE-BASED COMPOUND AS HERBICIDE” (Northwest A&F University, priority 2020, published 2022):

How the values were obtained:
Assay type in all cases: in vivo
Acalypha australis = assay: Field test for weed control in a corn field; details: 150 g a.i./ha, after treatment
Method in brief: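 Post-emergence field trial in a corn field following GB/T 17980.42-2000. Test compounds were formulated as 10% emulsifiable concentrates, diluted in water, and sprayed at 150 g(a.i.)/ha when corn had 2 to 5 leaves, with 4 replicates on 20 m^2 plots. Mesotrione 25% oil dispersion served as the control agent. Weed control was scored on a 1-9 scale.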

Amaranthus retroflexus [1] = assay: Field test for weed control in a corn field; details: 150 g a.i./ha, 30 days after treatment
Method in brief: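 Field efficacy trial in a corn field following GB/T 17980.42-2000. Test compounds were formulated as 10% emulsifiable concentrates, diluted in water and sprayed post-emergence when corn had 2 to 5 leaves. Each treatment covered 20 m^2 with 4 replicates. A 25% mesotrione oil dispersion served as control. Damage to Amaranthus retroflexus was rated on a 1-9 scale against untreated blank plots.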

green bristlegrass [2] = assay: Field test for weed control in a corn field; details: 150 g a.i./ha, after treatment
Method in brief: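 Post-emergence weed control was tested in a corn field following GB/T 17980.42-2000. When the corn had 2 leaves to 5 leaves after sowing, 10% emulsifiable concentrates diluted in water were sprayed at 150 g(a.i.)/ha on 20 m^2 plots, four replicates per treatment. Effects on green bristlegrass were scored on a 1-9 damage scale relative to the blank control area.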

Portulaca oleracea = assay: Field test for weed control in a corn field; details: 150 g a.i./ha, after treatment
Method in brief: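 Field efficacy trial in corn following GB/T 17980.42-2000. Test compounds were prepared as 10% emulsifiable concentrates, diluted in water, and sprayed at 150 g(a.i.)/ha when corn had 2 to 5 leaves after sowing. Plots were 20 m^2 with 4 replicates per treatment. Herbicidal activity was scored on a 1-9 scale from weed damage symptoms and severity.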

nutgrass flatsedge = assay: Field test for weed control in a corn field; details: 150 g a.i./ha, after treatment
Method in brief: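 A corn field efficacy trial following GB/T 17980.42-2000 assessed post-emergence control of nutgrass flatsedge. Test compounds were formulated as 10% emulsifiable concentrates, diluted in water, and sprayed at 150 g(a.i.)/ha when the corn had 2 to 5 leaves. Each treatment had 4 replicates on 20 m^2 plots. Herbicidal activity was graded on a 1-9 scale by damage symptoms and severity.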

Chenopodium album = assay: Field test for weed control in a corn field; details: 150 g a.i./ha, after treatment
Method in brief: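 A corn-field efficacy trial following GB/T 17980.42-2000 tested post-emergence control of Chenopodium album. Test compounds formulated as 10% emulsifiable concentrates were diluted in water and sprayed at 150 g(a.i.)/ha when the corn had 2 leaves to 5 leaves, on 20 m^2 plots with 4 replicates. Herbicidal activity was rated on a 1-9 scale by damage symptoms and severity.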

goosegrass = assay: Field test for weed control in a corn field; details: 150 g a.i./ha, after treatment
Method in brief: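 Weed control efficacy against goosegrass was tested in a corn field following GB/T 17980.42-2000. Compounds formulated as 10% emulsifiable concentrates were diluted in water and sprayed post-emergence at 150 g(a.i.)/ha when corn had 2 to 5 leaves, with 4 replicates of 20 m^2 plots. Herbicidal activity was rated on a 1-9 scale by damage symptoms and severity.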

Digitaria sanguinalis [3] = assay: Field test for weed control in a corn field; details: 150 g a.i./ha, after treatment
Method in brief: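 Field trial in a corn field following GB/T 17980.42-2000. Test compounds were formulated as 10% emulsifiable concentrates, diluted in water and sprayed post-emergence at 150 g(a.i.)/ha when corn had 2 to 5 leaves, with 4 replicates on 20 m^2 plots. Control of Digitaria sanguinalis was scored on a 1-9 scale based on weed damage relative to the untreated blank area.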

Convolvulus arvensis = assay: Field test for weed control in a corn field; details: 150 g a.i./ha, after treatment
Method in brief: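 Field trial of weed control against Convolvulus arvensis in corn, run following GB/T 17980.42-2000. Test agents were formulated as 10% emulsifiable concentrates and sprayed in water at 150 g(a.i.)/ha when corn plants had 2 to 5 leaves. Each treatment was replicated 4 times on 20 m^2 plots, and 25% mesotrione oil dispersion served as the control agent.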

Barnyard grass [4] = assay: Field test for weed control in a corn field; details: 150 g a.i./ha, 30 days after treatment
Method in brief: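 Corn-field efficacy trial following GB/T 17980.42-2000. Test compounds were formulated as 10% emulsifiable concentrates, diluted in water and sprayed post-emergence at 150 g(a.i.)/ha when corn had 2 to 5 leaves. Each treatment was replicated 4 times on 20 m^2 plots. Barnyard grass control was rated on a 1-9 damage scale.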

Solanum nigrum = assay: Field test for weed control in a corn field; details: 150 g a.i./ha, 30 days after treatment
Method in brief: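 Post-emergence weed control was tested in a corn field following GB/T 17980.42-2000. Compounds were made into 10% emulsifiable concentrates, diluted in water and sprayed at 150 g(a.i.)/ha when corn had 2 to 5 leaves after sowing, in 20 m^2 plots with 4 replicates. Effects on Solanum nigrum were graded on a 1-9 scale relative to the blank control area.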

Gramineae = assay: Post-emergence herbicidal activity test in a paddy field; parameters: key: level scale; higher level = more weed left vs blank control; details: 150 g a.i./ha (penoxsulam control 250 g(a.i.)/h)
Method in brief: (§1)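 Efficacy was visually estimated 15 and 30 days after spraying, grading weed coverage relative to an untreated neighbouring plot (level 2 = 0 to 2.5%, level 9 = 67.6 to 100%). Treatments were 150 g(a.i.)/ha from 10% emulsifiable concentrates applied at the 4-5 leaf rice stage, four repeats of 50 m^2 each.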

Broadleaf weed = assay: as above; parameters: key: level scale; higher level = more weed left vs blank control; details: 150 g a.i./ha (penoxsulam control 250 g(a.i.)/h)
Method in brief: as §1

Cyperaceae = assay: as above; parameters: key: level scale; higher level = more weed left vs blank control; details: 150 g a.i./ha (penoxsulam control 250 g(a.i.)/h)
Method in brief: as §1

Amaranthus retroflexus [5] = assay: Herbicidal activity test for indoor post-emergence spraying on stems and leaves; parameters: key: grade level by weed remaining vs blank control, e.g. 5 = 10.1-15%; details: 150 g a.i./ha, visual inspection 21 days after treatment
Method in brief: (§2)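 Post-emergence stem and leaf spray in an indoor test following NY/T 1155.4-2006, with weeds sown and grown in a greenhouse. Effect scored visually 21 days after treatment as graded levels, each level set by the percentage of weed remaining relative to the blank control area.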

Piemarker [6] = assay: as above; parameters: key: grade level by weed remaining vs blank control, e.g. 5 = 10.1-15%; details: 150 g a.i./ha, visual inspection 21 days after treatment
Method in brief: as §2

green bristlegrass [7] = assay: as above; parameters: key: grade level by weed remaining vs blank control, e.g. 5 = 10.1-15%; details: 150 g a.i./ha, visual inspection 21 days after treatment
Method in brief: as §2

Digitaria sanguinalis [8] = assay: as above; parameters: key: grade level by weed remaining vs blank control, e.g. 5 = 10.1-15%; details: 150 g a.i./ha, visual inspection 21 days after treatment
Method in brief: as §2

Humulus scandens [9] = assay: as above; parameters: key: grade level by weed remaining vs blank control, e.g. 5 = 10.1-15%; details: 150 g a.i./ha, visual inspection 21 days after treatment
Method in brief: as §2

Barnyard grass [10] = assay: as above; parameters: key: grade level by weed remaining vs blank control, e.g. 5 = 10.1-15%; details: 150 g a.i./ha, visual inspection 21 days after treatment
Method in brief: as §2

Amaranthus retroflexus [11] = assay: Herbicidal activity test for indoor pre-emergence soil treatment; parameters: key: 1-9 levels; higher = more weed remaining vs blank control; details: 150 g a.i./ha, visual inspection 21 days after treatment
Method in brief: (§3)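 Pre-emergence test following NY/T 1155.3-2006: weed seeds were sown in moistened neutral sandy loam (≤2% organic matter) and covered with 0.5–2.0 cm of soil. After 24 h, the soil was sprayed with a 10% EC diluted in water at 150 g(a.i.)/ha. Damage was scored visually on a 1–9 scale at 21 days.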

Digitaria sanguinalis [12] = assay: as above; parameters: key: 1-9 levels; higher = more weed remaining vs blank control; details: 150 g a.i./ha, visual inspection 21 days after treatment
Method in brief: as §3

Piemarker [13] = assay: as above; parameters: key: level 1-9; higher = more weed remaining vs blank control; details: 150 g a.i./ha, visual inspection 21 days after treatment
Method in brief: as §3

green bristlegrass [14] = assay: as above; parameters: key: level 1-9; higher = more weed remaining vs blank control; details: 150 g a.i./ha, visual inspection 21 days after treatment
Method in brief: as §3

Barnyard grass [15] = assay: as above; parameters: key: level 1-9; higher = more weed remaining vs blank control; details: 150 g a.i./ha, visual inspection 21 days after treatment
Method in brief: as §3

Humulus scandens [16] = assay: as above; details: 150 g a.i./ha, visual inspection 21 days after treatment
Method in brief: as §3

With COc1ncccc1C(=O)NCc1cccc(C)c1 [Compound A85] the “Post-emergence weed control effect, Acalypha australis” value (Acalypha australis) was 1, the “Post-emergence weed control effect, Amaranthus retroflexus” value (Amaranthus retroflexus [1]) was 1 and the “Post-emergence weed control effect, Green bristlegrass” value (green bristlegrass [2]) was 1. The “Post-emergence weed control effect, Portulaca oleracea” value (Portulaca oleracea) was 1, the “Post-emergence weed control effect, Nutgrass flatsedge” value (nutgrass flatsedge) was 2 (equivalent to 0 to 2.5% of the weed in the blank control area) and the “Post-emergence weed control effect, Chenopodium album” value (Chenopodium album) was 1. The “Post-emergence weed control effect, Goose grass” value (goosegrass) was 2 (equivalent to 0 to 2.5% of the weed in the blank control area), the “Post-emergence weed control effect, Digitaria sanguinalis” value (Digitaria sanguinalis [3]) was 2 (equivalent to 0 to 2.5% of the weed in the blank control area) and the “Post-emergence weed control effect, Convolvulus arvensis” value (Convolvulus arvensis) was 1. For the same molecule, the “Post-emergence weed control effect, Barnyard grass” value (Barnyard grass [4]) was 1, the “Post-emergence weed control effect, Solanum nigrum” value (Solanum nigrum) was 2 (equivalent to 0 to 2.5% of the weed in the blank control area) and the “Herbicidal activity 15 days after treatment Gramineae” value (Gramineae; 15 days after treatment) was 2 (equivalent to 0 to 2.5% of the weed in the blank control area). For the same molecule, the “Herbicidal activity 30 days after treatment Gramineae” value (Gramineae; 30 days after treatment) was 1, the “Herbicidal activity 15 days after treatment Broadleaf weed” value (Broadleaf weed; 15 days after treatment) was 1 and the “Herbicidal activity 30 days after treatment Broadleaf weed” value (Broadleaf weed; 30 days after treatment) was 1. The “Herbicidal activity 15 days after treatment Cyperaceae” value (Cyperaceae; 15 days after treatment) was 1, the “Herbicidal activity 30 days after treatment Cyperaceae” value (Cyperaceae; 30 days after treatment) was 1 and the “Herbicidal Activity Amaranthus retroflexus” value (Amaranthus retroflexus [5]) was 1. The “Herbicidal Activity Piemarker” value (Piemarker [6]) was 1, the “Herbicidal Activity Green bristlegrass” value (green bristlegrass [7]) was 1 and the “Herbicidal Activity Digitaria sanguinalis” value (Digitaria sanguinalis [8]) was 1. The “Herbicidal Activity Humulus scandens” value (Humulus scandens [9]) was 1, the “Herbicidal Activity Barnyard grass” value (Barnyard grass [10]) was 1 and the “Herbicidal Activity Amaranthus retroflexus” value (Amaranthus retroflexus [11]) was 2 (equivalent to 0 to 2.5% of the weed in the blank control area). For the same molecule, the “Herbicidal Activity Digitaria sanguinalis” value (Digitaria sanguinalis [12]) was 1, the “Herbicidal Activity Piemarker” value (Piemarker [13]) was 1 and the “Herbicidal Activity Green bristlegrass” value (green bristlegrass [14]) was 1. For the same molecule, the “Herbicidal Activity Barnyard grass” value (Barnyard grass [15]) was 1 and the “Herbicidal Activity Humulus scandens” value (Humulus scandens [16]) was 3 (equivalent to 2.6 to 5% of the weed in the blank control area).
